Where two headings read alike, the source gives them in different places.
What was measured:
[1] = for percent of salt dissolved in first 3 seconds: room temperature, FIG. 5; for initial conductivity reading at 3 seconds: first reading 3 seconds; for percent of NaF dissolved in the first 3 seconds: from conductivity; for 3 sec Dissolution: Table 4, 3 sec; for 200 sec Dissolution: Table 4, 200 sec; for 400 sec Dissolution: Table 4, 400 sec; for 800 sec Dissolution: Table 4, 800 sec
Method: Such a test is a standard test that is well understood in the scientific community. In this experiment, at room temperature, 35 mg of commercially available solid cubic sodium fluoride was added to a beaker. A conductivity probe was placed into the beaker. 25 mL of ultrapure water was added to the beaker, instantaneously submerging the conductivity probe. Conductivity data can be collected every 3 seconds on the probe.
This is tested by adding to a beaker 56 mg of the given salt to be tested. To this is added a conductivity probe. As the salt is added, the solution is stirred.
The dissolution rate of NaF crystals correlates to the conductivity of NaF in solution. That is to say, as salt dissolves in water, the conductivity of the salt solution increases. […] Conductivity is utilized to test the rate of dissolution. The conductivity of ultrapure water is approximately […] when no ions are present. The first reading on the conductivity meter can be made 3 seconds after the experiment begins.

[2] = Surface area (BET method) normalized to mass; assay type: physicochemical
Description: Further characterization of the HSA NaF crystals compared to the solid cubic commercially available crystals of sodium fluoride examined the surface area (BET method) normalized to the mass of the crystals. […] Use of either of the Hall density of the surface area normalized to mass allows for a quantitative mechanism to differentiate the crystal formation.

[3] = Hall density (ASTM Standard B212-99)

## [F-].[Na+] [commercial NaF, sodium fluoride]
[1]; 35 mg in 25 mL ultrapure water, listed as commercially available solid cubic sodium fluoride
  percent of salt dissolved in first 3 seconds: approximately 33%
[1]; FIG. 7A
  conductivity after all of the salt dissolved: 2,605 μS/cm
  time before all the NaF dissolved: About 500 seconds
  initial conductivity reading at 3 seconds: 1,127 μS/cm
  percent of NaF dissolved in the first 3 seconds: ~43%
[1]; listed as Ordinary
  3 sec Dissolution: ~1,000
  200 sec Dissolution: ~1,175
  400 sec Dissolution: ~1,500
  800 sec Dissolution: ~2,500
[1]; dissolution in water
  time for ordinary crystal to reach the concentration of HSA crystal's virtual maximum release: more than ten minutes
[2]; listed as commercial crystals
  surface area to mass ratio: 0.12±0.02 m^2/g
[3]; listed as Commercial solid cubic crystals of sodium fluoride
  Hall density: 0.86 ± 0.03 g/mL

## [F-].[Na+] [crystals made from precipitation into 90% ethanol] [sodium fluoride]
[1]; FIG. 7A
  percent of NaF dissolved in the first 3 seconds: 60%

## [F-].[Na+] [HSA NaF crystals, sodium fluoride]
[1]; 35 mg in 25 mL ultrapure water, listed as HSA crystal NaF
  percent of salt dissolved in first 3 seconds: approximately 90%
[1]; listed as High Surface Area
  3 sec Dissolution: ~2,600
  200 sec Dissolution: ~2,625
  400 sec Dissolution: ~2,700
  800 sec Dissolution: ~2,750
[1]; conductivity as a function of time
  rate of dissolution in aqueous environment compared with commercial cubic crystals: greater rate than commercially available cubic crystals
[1]; dissolution in water
  time to reach virtual maximum release: 3 s
[2]; listed as hopper crystals
  surface area to mass ratio: 0.22±0.04 m^2/g
[3]; listed as HSA NaF hopper crystals
  Hall density: 0.68 ± 0.04 g/mL

## [F-].[Na+] [sodium fluoride]
[1]; 35 mg in 25 mL ultrapure water
  peak conductivity of sodium fluoride solution: approximately 3,000 μS/cm

## [F-].[Na+] [85% ethanol formulation, sodium fluoride]
[1]; FIG. 7A
  initial conductivity reading at 3 seconds: 2,068 μS/cm
  percent of NaF dissolved in the first 3 seconds: approximately 79%

From patent publication US20250236530A1, “ACCELERATED TOOTH REMINERALIZATION TECHNOLOGY” (Creighton University, priority 2022, published 2025)
